The text below walks through data of BindingDB's records for PubMed 37567057 (Institute of Organic Chemistry and Biochemistry of the …).

Assay [1] has as its target T1, Stimulator of interferon genes protein (Homo sapiens, UniProt Q86WV6). Put plainly: Agonist activity at STING R71H/G230A/R293Q mutant (unknown origin) expressed in digitonin -permeabilized HEK293T cells preincubated for 30 mins followed by washout and measured after 5 hrs by Bright-glo luciferase assay.
In assay [2] the target is T1, Stimulator of interferon genes protein. Put plainly: Agonist activity at STING G230A/R293Q mutant (unknown origin) expressed in digitonin -permeabilized HEK293T cells preincubated for 30 mins followed by washout and measured after 5 hrs by Bright-glo luciferase assay.

T1 sequence (Q86WV6 whole entry): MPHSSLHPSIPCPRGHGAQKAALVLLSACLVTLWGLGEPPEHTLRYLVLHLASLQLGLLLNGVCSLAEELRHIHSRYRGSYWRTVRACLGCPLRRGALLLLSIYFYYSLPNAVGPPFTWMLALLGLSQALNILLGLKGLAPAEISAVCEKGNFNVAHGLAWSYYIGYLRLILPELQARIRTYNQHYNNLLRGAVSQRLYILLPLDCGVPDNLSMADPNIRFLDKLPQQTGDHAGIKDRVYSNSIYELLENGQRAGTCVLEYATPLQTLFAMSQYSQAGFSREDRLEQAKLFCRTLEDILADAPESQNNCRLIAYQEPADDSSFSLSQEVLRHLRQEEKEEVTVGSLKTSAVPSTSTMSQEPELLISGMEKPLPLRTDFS

Take `Nc1ncnc2c1ncn2[C@@H]1O[C@@H]2C=CP(=O)(O)O[C@H]3[C@@H](F)[C@H](n4cnc5c(N)ncnc54)O[C@@H]3COP(=O)(O)O[C@H]2[C@H]1F`: the EC50 in assay [1] and in assay [2] was 100 nM in each case.
